Results taken from paper PMC8019741, “Efficacy Prediction of Four Pharmaceutical Formulations for Intramammary Administration Containing Aloe vera (L.) Burm. f. Combined With Ceftiofur or Cloxacillin in Lactating Cows as an Alternative Therapy to Treat Mastitis Caused by Staphylococcus aureus” (Frontiers in Veterinary Science, 2021).

Test system: Staphylococcus aureus ATCC 29213
Assay: Macrodilution MIC test (CLSI)
Type: cell-based
Conditions: for MIC of the antimicrobial not combined: alone
Protocol: A macrodilution test was performed to determine the MIC for the different combinations, following the recommendations from the CLSI ([47]).
Aloe vera gel extract (1,200 mg/ml) was diluted in Muller-Hinton II (Cation Adjusted) Broth (MHBCA) from BD® (Franklin Lakes, NJ, USA) up to a range of concentrations from 150 to 1,200 mg/ml. In addition, the standard solutions of cloxacillin and ceftiofur were diluted in MHBCA to prepare 2-fold serial dilutions at a concentrations range of 0.015–128 μg/ml.
Staphylococcus aureus ATCC 29213 (KWIK-STIK) was sourced from Microbiologics® (St. Cloud, MN, USA) and used to test the MIC for the different combinations of Aloe vera and cloxacillin or ceftiofur. First, S. aureus was rehydrated with Trypticase™ Soy Broth from BD® (Franklin Lakes, NJ, USA). Then, these bacteria were cultured in the Trypticase™ Soy Broth from BD® (Franklin Lakes, NJ, USA) with 5% sheep defibrinated blood (Franklin Lakes, NJ, USA) at an incubation temperature of 36 ± 1°C for 24 h. Once incubation ended, bacteria were preserved at −80°C using cryobank vials, while waiting for further processing. […] These cultured bacteria were then suspended in MHBCA from BD® (Franklin Lakes, NJ, USA), and the optical density was adjusted according to the McFarland Standard Solution to standardize the number of bacteria. From this broth, dilutions containing 5 × 10^5 UFC/ml were incubated along with dilutions of a combination of Aloe vera extract and antimicrobials. […] Additionally, S. aureus bacteria were incubated separately, in different tubes, with the extract, cloxacillin, and ceftiofur dilutions.

MIC (Staphylococcus aureus, ATCC29213, calculated from the MIC of Aloe vera in the combination and the concentration of aloin A + aloin B in the extract)	MIC of the antimicrobial not combined	SMILES
0.00366 µg/mL	–	O=C1c2c(O)cccc2C([C@@H]2O[C@H](CO)[C@@H](O)[C@H](O)[C@H]2O)c2cc(CO)cc(O)c21 (stereo partly drawn) [aloin]
–	0.25 µg/mL	Cc1onc(-c2ccccc2Cl)c1C(=O)N[C@@H]1C(=O)N2[C@@H]1SC(C)(C)[C@@H]2C(=O)O [cloxacillin]
–	0.25 µg/mL	CO/N=C(\C(=O)N[C@@H]1C(=O)N2C(C(=O)O)=C(CSC(=O)c3ccco3)CS[C@H]12)c1csc(N)n1 [ceftiofur]
